Reference: patent publication US7541374B2, “Malononitrile compounds and use thereof” (Sumitomo Chemical Company, Limited, priority 2004, dated 2009)
Where two headings read alike, the source gives them in different places.

How the values were obtained:
Format in all cases: in vivo
Culex pipiens pallens = test: Test Example 5: larvae in treated water, Culex pipiens pallens; settings: 24 h, read-out: rate of dead pests
Procedure: The formulation obtained according to Formulation Example 5 using the compound of the present invention (1), (2), (3), (4), (5), (6), (7), (8), (9), (10), (11), (12), (13), (14), (15), (16), (17), (18), (19), (20), (21), (22), (23), (25), (27), (28), (29), […], (31), (32), (33), (34), (35), (36), (37), (38), (39), (41), (44), (45), (46), (47) and (48) respectively, was diluted with water so that the active ingredient concentration came to 500 ppm to prepare a pesticidal solution for test.
0.7 ml of above pesticidal solution for test was added to 100 ml of ion exchanged water (active ingredient concentration: 3.5 ppm). Twenty last-instar larvae of Culex pipiens pallens were set free in the solution. After one day, the number of surviving and dead Culex pipiens pallens was examined and the rate of dead pests was calculated.

Blattella germanica = test: Test Example 4: treated filter paper with sucrose bait, Blattella germanica; settings: 144 h, read-out: rate of dead pests
Procedure: (§1) The formulation obtained according to Formulation Example 5 using the compound of the present invention (2), (3), (4), (6), (7), (8), (9), (11), (12), (13), (15), (16), (18), (19), (20), (21), (22), (27), (28), (29), (30), (31), (32), (33), (34), (35), (36), (37), (38), (43) and (43) respectively, was diluted with water so that the active ingredient concentration came to 500 ppm to prepare a pesticidal solution for test.
(§2) On the bottom of a polyethylene cup having a diameter of 5.5 cm, a filter paper having the same diameter was laid, and 0.7 ml of the above pesticidal solution for test was added dropwise on the filter paper, followed by putting 30 mg of sucrose on it uniformly as a bait. Two male Blattella germanica imagoes were set free in the polyethylene cup and covered it with a lid. After 6 days, the number of surviving and dead Blattella germanica was examined and the rate of dead pests was calculated.

Musca domestica = test: Test Example 3: treated filter paper with sucrose bait, Musca domestica; settings: read-out: rate of dead pests
Procedure: as §1, with “(8),” for “(8), (9),”, “(16),” for “(16), (18),”, “(22),” for “(22), (27),”, “(34),” for “(34), (35),”, “(38)” for “(38), (43)”, “(39)” for “(43)”
as §2, with “Ten female Musca domestica” for “Two male Blattella germanica”, “24 hours,” for “6 days,”, “Musca domestica” for “Blattella germanica”

[1] = active ingredient concentration 3.5 ppm in water, twenty last-instar larvae of Culex pipiens pallens, after one day
[2] = 500 ppm, 0.7 ml on filter paper, two male Blattella germanica imagoes, after 6 days
[3] = 500 ppm, 0.7 ml on filter paper, ten female Musca domestica imagoes, after 24 hours

| SMILES | pest or weed control at 3.5 ppm (Culex pipiens pallens; [1]) | pest or weed control at 500 ppm (Blattella germanica; [2]) | pest or weed control at 500 ppm (Musca domestica; [3]) | also measured |
| --- | --- | --- | --- | --- |
| N#CC(C#N)(CCC(F)(F)F)Cn1cccn1 [compound of the present invention (1), (1H-pyrazole-1-yl methyl) (3,3,3-trifluoropropyl) malononitrile] | ≥ 95% |  |  |  |
| CC(C)c1ccn(CC(C#N)(C#N)CCC(F)(F)F)n1 [compound of the present invention (2), [(3-i-propyl-1H-pyrazole-1-yl)methyl](3,3,3-trifluoropropyl) malononitrile] | ≥ 95% | 100% | ≥ 90% |  |
| CC(C)(C)c1ccn(CC(C#N)(C#N)CCC(F)(F)F)n1 [compound of the present invention (3), [(3-t-butyl-1H-pyrazole-1-yl)methyl](3,3,3-trifluoropropyl) malononitrile] | ≥ 95% | 100% | ≥ 90% |  |
| C=CCC(C#N)(C#N)Cn1ccc(C(C)(C)C)n1 [compound of the present invention (4), allyl [(3-t-butyl-1H-pyrazole-1-yl)methyl]malononitrile] | ≥ 95% | 100% | ≥ 90% |  |
| CC1(C)CCc2cn(CC(C#N)(C#N)CCC(F)(F)F)nc21 [compound of the present invention (5), [(6,6-dimethyl-5,6-dihydro-cyclopenta[c]pyrazole-2(4H)-yl)methyl](3,3,3-trifluoropropyl) malononitrile] | ≥ 95% |  |  |  |
| N#CC(C#N)(CCC(F)(F)F)Cn1ccc(C(F)(F)F)n1 [compound of the present invention (6), {[3-(trifluoromethyl)-1H-pyrazole-1-yl]methyl}(3,3,3-trifluoropropyl) malononitrile] | ≥ 95% | 100% | ≥ 90% |  |
| C=CCC(C#N)(C#N)Cn1ccc(C(F)(F)F)n1 [compound of the present invention (7), allyl {[3-(trifluoromethyl)-1H-pyrazole-1-yl]methyl}malononitrile] | ≥ 95% | 100% | ≥ 90% |  |
| N#CC(C#N)(CCC(F)(F)F)Cn1ccc(C=O)n1 [compound of the present invention (8), [(3-formyl-1H-pyrazole-1-yl)methyl](3,3,3-trifluoropropyl) malononitrile] |  |  |  | pest or weed control at 3.5 ppm (Culex pipiens pallens; Culex pipiens): ≥ 95%; pest or weed control at 500 ppm (Blattella germanica; Blattella germanica): 100%; pest or weed control at 500 ppm (Musca domestica; Musca domestica, 24 h): ≥ 90% |
| N#Cc1ccn(CC(C#N)(C#N)CCC(F)(F)F)n1 [compound of the present invention (9), [(3-cyano-1H-pyrazole-1-yl)methyl](3,3,3-trifluoropropyl) malononitrile] | ≥ 95% | 100% |  |  |
| N#CC(C#N)(CCC(F)(F)F)Cn1ccc(-c2ccccc2)n1 [compound of the present invention (10), [(3-phenyl-1H-pyrazole-1-yl)methyl](3,3,3-trifluoropropyl)malononitrile] | ≥ 95% |  |  |  |
| CC(C)c1nn(CC(C#N)(C#N)CCC(F)(F)F)cc1Br [compound of the present invention (11), [(4-bromo-3-i-propyl-1H-pyrazole-1-yl)methyl] (3,3,3-trifluoropropyl) malononitrile] | ≥ 95% | 100% | ≥ 90% |  |
| C=CCC(C#N)(C#N)Cn1cc(Br)c(C(C)(C)C)n1 [compound of the present invention (14), allyl [(4-bromo-3-t-butyl-1H-pyrazole-1-yl)methyl]malononitrile] | ≥ 95% |  |  |  |
| Cc1cc(C)n(CC(C#N)(C#N)CCC(F)(F)F)n1 [compound of the present invention (17)] | ≥ 95% |  |  |  |
| Cc1cnn(CC(C#N)(C#N)CCC(F)(F)F)c1 [compound of the present invention (18)] | ≥ 95% | 100% |  |  |
| COC(=O)c1cnn(CC(C#N)(C#N)CCC(F)(F)F)c1 [compound of the present invention (23), [{4-(methoxycarbonyl)-1H-pyrazole-1-yl}methyl](3,3,3-trifluoropropyl) malononitrile] | ≥ 95% |  |  |  |
| CCOC(=O)c1cn(CC(C#N)(C#N)CCC(F)(F)F)nc1C(F)(F)F [compound of the present invention (25), {[4-ethoxycarbonyl-3-(trifluoromethyl)-pyrazole-1H-yl]methyl}(3,3,3-trifluoropropyl) malononitrile] | ≥ 95% |  |  |  |
| N#CC(C#N)(CCC(F)(F)F)Cn1cncn1 [compound of the present invention (27), [(1H-1,2,4-triazole-1-yl)methyl](3,3,3-trifluoropropyl) malononitrile] | ≥ 95% | 100% |  |  |
| CCC(C)(C)c1ncn(CC(C#N)(C#N)CCC(F)(F)F)n1 [compound of the present invention (30), {[3-(1,1-dimethylpropyl)-1H-1,2,4-triazole-1-yl]methyl}(3,3,3-trifluoropropyl) malononitrile] |  | 100% | ≥ 90% |  |
| C=CCC(C#N)(C#N)Cn1cnc(C(F)(F)C(F)(F)F)n1 [compound of the present invention (35), allyl {[3-(pentafluoroethyl)-1H-1,2,4-triazole 1-yl]methyl}malononitrile] | ≥ 95% | 100% |  |  |
| N#Cc1cn(CC(C#N)(C#N)CCC(F)(F)F)c2ccccc12 [compound of the present invention (39), [{3-cyano-1H-indole-1-yl}methyl] (3,3,3-trifluoropropyl) malononitrile] | ≥ 95% |  | ≥ 90% |  |
| N#CC(C#N)(CCC(F)(F)F)Cn1cc(C(=O)C(F)(F)F)c2ccccc21 [compound of the present invention (41), [{3-(trifluoroacetyl)-1H-indole-1-yl}methyl](3,3,3-trifluoropropyl) malononitrile] |  |  |  | pest or weed control at 3.5 ppm (Culex pipiens pallens; Culex pipiens): ≥ 95% |
| N#CC(C#N)(CCC(F)(F)F)Cn1cc(SC(F)(Cl)Cl)cn1 [compound of the present invention (43), [(4-{(dichlorofluoromethyl)thio}-1H-pyrazole-1-yl)methyl](3,3,3-trifluoropropyl)malononitrile] |  | 100% |  |  |
| N#CC(C#N)(CCC(F)(F)F)Cn1cc(SC(F)(Cl)Cl)c2ccccc21 [compound of the present invention (44), [(3-{[dichlorofluoromethyl]thio}-1H-indole-1-yl)methyl](3,3,3-trifluoropropyl) malononitrile] | ≥ 95% |  |  |  |
| N#Cc1cn(CC(C#N)(C#N)CCC(F)(F)F)cc1C(F)(F)F [compound of the present invention (46), [(3-cyano-4-trifluoromethyl-1H-pyrole-1-yl)methyl](3,3,3-trifluoropropyl) malononitrile] | ≥ 95% |  |  |  |
| CCOC(=O)c1cn(CC(C#N)(C#N)CCC(F)(F)F)cc1C(F)(F)F [compound of the present invention (47), [(3-ethoxycarbonyl-4-trifluoromethyl-1H-pyrole-1-yl)methyl](3,3,3-trifluoropropyl)malononitrile] | ≥ 95% |  |  |  |
| N#Cc1ccn(CC(C#N)(C#N)CCC(F)(F)F)c1 [compound of the present invention (48), [(3-cyano-1H-pyrole-1-yl)methyl] (3,3,3-trifluoropropyl) malononitrile] | ≥ 95% |  |  |  |
